According to US20230313181A1, “HISTIDINE-LYSINE POLYMERS AND METHODS FOR DELIVERING MRNA USING THE SAME” (UNIVERSITY OF MARYLAND, BALTIMORE, priority 2019, published 2023):
Bridges are numbered along the chain shown (N, C = ends). Roman numbers before positions name the chains, in order. Where no end group is shown, it is not given here.

Assays:
mRNA = assay: Gel retardation assay of HK polymer/mRNA polyplexes; assay type: physicochemical; conditions: 1:2 and 1:1 ratios (wt:wt; peptide:mRNA)
Experimental: FIG. 3. Gel retardation assay. After H3K(+H)4b or H3K4b carriers were mixed with mRNA at the various ratios shown in the figure (wt:wt; peptide:mRNA, mRNA was 1 μg in each) for 30 min, the HK polyplexes were loaded onto the gel (1% agarose). Electrophoresis was carried out at a constant voltage of 75 V for 30 min in TAE buffer and then stained with Sybr Gold as detailed herein. In first lane, RNA standard (New England Biolabls, B0363A) was loaded whereas in the second lane, the control, luciferase mRNA without a carrier was loaded into the well. In subsequent lanes, various ratios of mRNA:HK were loaded into wells.
Gel Retardation Assay. Various amounts of HK polymers were mixed with […] of mRNA and incubated for 30 min at room temperature. Specifically, the following HK polymer/mRNA ratios (w/w) were prepared in water: 1/2; 1/1; 2/1, 4/1, 8/1. After 30 min, the HK polyplex was loaded onto the gel (1% agarose, Sigma-Aldrich; 10× BlueJuice Gel loading buffer, ThermoFisher Scientific), electrophoresis was then carried out at a constant voltage of 75 V for 30 min in TAE buffer (Quality Biologicals, Gaithersburg, MD). The mRNA was stained with Sybr Gold Nucleic Acid dye (SG, 1×) (ThermoFisher Scientific) for 30 min before exposure to the UV imager (ChemiDoc Touch, BIO-RAD, Hercules, CA).

[1] = Particle size, polydispersity index (PDI) and zeta potential of polyplexes (Zetasizer); assay type: physicochemical
Experimental: Particle size, polydispersity index (PDI), and zeta potential. The size, PDI, and zeta potential were determined with the Zetasizer (Malvern, Westborough, Mass.) and analyzed with software provided by the instrument manufacturer (Zetasizer software, version 6.2). Using dynamic light scattering at a 90° angle, the size of the particles were reported as the Z-average diameter from the intensity-weighted size distribution. Prior to the measurements, the samples were equilibrated to 25° C. for 2 min. Each measurement had at least ten sub-runs under the automatic mode of the software. The particle size, PDI, and zeta potential data point represent the mean±SD of three measurements. After mixing HK peptides (4 μg) and mRNA (1 μg) in 100 μl of defined media (Opti-MEM, water, or DMEM/8% FBS) for 30 min, 100 μl of additional defined media was added to the polyplex solution (total volume 200 μl) to measure the size and PDI. To determine the zeta potential, 800 μl more of the media was added (total volume 1000 μl), mixed gently, and then added to the disposable zeta cell.
Because different stabilities were observed between the H3K4b and H3K(+H)4b polyplexes, whether the sizes of these polyplexes varied based on the media in which they were prepared was investigated. […] H3K(+H)4b and H3K4b peptides (4 μg) in complex with mRNA (1 μg) were mixed with either Opti-MEM, water, or DMEM/8% FBS […]. After 1 h, the size, PDI, and zeta potential were measured.

[2] = Cell viability assay (trypan blue exclusion); assay type: cell-based; conditions: human, MDA-MB-231 cells, HK polymer 4 μg or polyplex (4 μg HK; 1 μg mRNA), then 19 h DMEM/10% FBS
Experimental: Cell Viability Assay. MDA-MB-231 cells were seeded at 5.0×10^4/well in a 24-tissue culture plate and incubated overnight in DMEM supplemented with 10% FBS serum. The media was then changed to Opti-MEM and the cells were treated with either the HK polymer (4 μg) or the HK polyplex (4 μg HK; 1 μg mRNA) for 5 h. After the media was changed to DMEM/10% FBS for 19 h, the cell viability was measured using the trypan blue cell exclusion assay (Trypan Blue solution, 0.4%, Sigma-Aldrich, St. Louis, MO).
After the medium was changed to Opti-MEM in cell cultures of the MDA-MB-231 cells used in the experiment described above, either the HK polymer (4 μg) or the HK polyplex (4 μg HK; 1 μg mRNA) was added dropwise to the cells and incubated for 5 h. The media was then changed to DMEM/10% FBS for 19 h and cell viability was determined using the trypan cell exclusion assay.

MDA-MB-231 cells = assay: In vitro mRNA transfection with HK polyplexes (luciferase mRNA, luciferase activity); assay type: cell-based; conditions: for RLU/μg-Protein (luciferase activity): mRNA 1 μg, 24 h
Experimental: FIG. 1. Comparison of H3K(+H)4b and H3K4b peptides as carriers of mRNA. To form the HK polyplexes, the mRNA (1 μg) was mixed with 3 different ratios of the HK ([…]) polymer for 30 minutes. The HK polyplexes were then added to the cells for 24 h before the luciferase activity was measured. ****, H3K(+H)4b vs H3K4b, P<0.0001.
In vitro mRNA Transfection. Several HK polymers were examined for their ability to carry a luciferase-expressing mRNA (CleanCap Firefly Luciferase mRNA, Trilink Biotechnologies, Inc, San Diego, CA) into MDA-MB-231 cells (America Type Tissue Culture, Manassas, VA). In brief, 3×10^4 cells were plated into a 24-well plate containing 500 μl of DMEM and 10% fetal bovine serum (ThermoFisher Scientific, Waltham, MA). After 24 h, when the cells were 60 to 80% confluent, the media in each well was changed to Opti-MEM (ThermoFisher Scientific). To prepare HK polyplexes, mRNA (1 μg) in 50 μl of Opti-MEM was briefly mixed well with one of the HK polymers (4 to 12 μg) and maintained at room temperature for 30 min. This polyplex was then added dropwise to the cells. After four h, the Opti-MEM media was removed and replaced with 0.5 ml of DMEM/10% serum (0.5 ml). Twenty-four hours later, the cells were lysed, and the luciferase activity (Promega Corporation, Madison, WI) was measured.
To obtain the data in Table 4, luciferase-expressing mRNA (1 μg) in 50 μl of Opti-MEM was briefly mixed with one of the HK polymers (4, 8, or 12 μg) and maintained at room temperature for 30 min. The resulting polyplexes were added dropwise to the MDA-NM-231 cells and after four h, the Opti-MEM media was removed and replaced with DMEM/10% serum. Twenty-four hours later, the cells were lysed, and the luciferase activity was measured

[3] = polyplex HK 4 μg:mRNA 1 μg in DMEM/8% FBS
[4] = polyplex HK 4 μg:mRNA 1 μg in Opti-MEM
[5] = polyplex HK 4 μg:mRNA 1 μg in Water

With “I: KHHHKHHHKHHHHKHHHKKKK-NH2 / II: KHHHKHHHKHHHHKHHHK / III: KHHHKHHHKHHHHKHHHK / IV: KHHHKHHHKHHHHKHHHK (amide I:19-IV:C, I:20-III:C, I:21-II:C) [H3K(+H)4b]” the “retardation of mRNA at low ratios compared with H3K4b (in words)” value (mRNA) was “markedly less retarded”, the PDI [1, 3] was 0.307 and the Size [1, 3] was 289 ± 38.2 nm. For the same substance, the “Zeta Potential” value [1, 3] was −12.7 ± 1.04 mV, the PDI [1, 4] was 0.362 and the Size [1, 4] was 1004 ± 61.1 nm. The “Zeta Potential” value [1, 4] was 2.92 ± 1.83 mV, the PDI [1, 5] was 0.212 and the Size [1, 5] was 234.9 ± 2.7 nm. For the same substance, the “Zeta Potential” value [1, 5] was 20.77 ± 1.12 mV, the viability at 5 h [2] was 96.3% and the “luciferase expression, fold greater than with H3K4b” value (MDA-MB-231 cells; 4:1 ratio (HK:mRNA; wt:wt)) was 10 fold. For the same substance, the “effectiveness as carrier of mRNA (in words)” value (MDA-MB-231 cells; luciferase mRNA, HK polyplex) was “markedly better as a carrier of mRNA”, the “RLU/μg-Protein (luciferase activity)” value (MDA-MB-231 cells; ratio mRNA:polymer 1:4 (wt:wt)) was 1532.9 ± 122.9 RLU/μg-Protein and the “RLU/μg-Protein (luciferase activity)” value (MDA-MB-231 cells; ratio mRNA:polymer 1:8 (wt:wt)) was 1656.3 ± 202.5 RLU/μg-Protein. The “RLU/μg-Protein (luciferase activity)” value (MDA-MB-231 cells; ratio mRNA:polymer 1:12 (wt:wt)) was 1033.4 ± 197^ RLU/μg-Protein.
